In ChEMBL document CHEMBL1121542, “Beta-adrenergic blocking agents. 20. (3-Hydroxyprop-1-enyl)-substituted 1-(aryloxy)-3-(alkylamino)propan-2-ols” (J Med Chem, 1980):
Activity calls are given as the source filed them. The rule behind the calls is not given here.

What was measured:
[1] = biological target: Adrenergic receptor beta (Homo sapiens) (UniProt P08588+P07550+P13945); experiment: Compound was evaluated in vivo for beta-Adrenoceptor blocking potency in cat measured as the degree (percent) of blockade of the vasopressor response at the dose level; format: functional, organism-based; details: Felis catus; target entry is the homologue from another species
Adrenergic receptor beta = experiment: Compound was evaluated in vivo for beta-Adrenoceptor blocking potency in cat and is expressed as total dose, infused over a period of 30 minutes, causing 50% inhibition of the tachycardia (iv administration); NA means not active; format: functional, organism-based; details: Felis catus

SMILES | Inhibition [1] [%] | Inhibition (Adrenergic receptor beta)
COc1ccc(/C=C/CO)cc1OCC(O)CNC(C)C (stereo not given) | – | inactive
CC(C)NCC(O)COc1cc(/C=C/CO)ccc1Br (stereo not given) | – | inactive
CCOc1cc(/C=C/CO)ccc1OCC(O)CNC(C)C (stereo not given) | – | inactive

Second part, the molecule after the results:

Inhibition [1] [%] | Inhibition (Adrenergic receptor beta) | SMILES
76 | – | CC(C)(C)NCC(O)COc1ccc(/C=C/CO)cc1Cl (stereo not given)
– | inactive | C=CCc1cc(/C=C/CO)ccc1OCC(O)CNC(C)(C)C (stereo not given)
